# Assay results published in the CombiSolv-Exp solvation set (Vermeire and Green 2021).
# Test: solvent given as SMILES
# [1] = in CCCCCCCCC=CCCCCCCCC(=O)OCC(COC(=O)CCCCCCCC=CCCCCCCCC)OC(=O)CCCCCCCC=CCCCCCCCC
smiles,measurement,setting,value
C=C(C)C1CC=C(C)C(OC(C)=O)C1 (centres undefined),"solvation free energy, 298 K",in O,-4 kcal/mol
CCC(N)=O,"solvation free energy, 298 K",in O,-9.4 kcal/mol
Cc1cccc(C)c1C,"solvation free energy, 298 K",in O,-1.15 kcal/mol
ClC(Cl)=C(Cl)C(Cl)=C(Cl)Cl,"solvation free energy, 298 K",in O,-0.46 kcal/mol
ClC1=C(Cl)C2(Cl)C3C(Cl)C=CC3C1(Cl)C2(Cl)Cl (centres undefined),"solvation free energy, 298 K",[1],-13.5 kcal/mol
same,"solvation free energy, 298 K",in CCCCCCCCO,-10.6 kcal/mol
same,"solvation free energy, 298 K",in O,-2.55 kcal/mol
c1ccc2ccccc2c1,"solvation free energy, 298 K",in C1CCOC1,-8.21 kcal/mol
same,"solvation free energy, 298 K",in C1COCCO1,-7.98 kcal/mol
same,"solvation free energy, 298 K",in CC(=O)OCC(C)C,-7.7 kcal/mol
same,"solvation free energy, 298 K",in CC(C)(C)O,-6.85 kcal/mol
same,"solvation free energy, 298 K",in CC(C)=O,-7.84 kcal/mol
same,"solvation free energy, 298 K",in CC(C)CC(C)(C)C,-6.92 kcal/mol
same,"solvation free energy, 298 K",in CC(C)CO,-7.09 kcal/mol
same,"solvation free energy, 298 K",in CC(C)O,-6.9 kcal/mol
same,"solvation free energy, 298 K",in CCC(C)O,-6.88 kcal/mol
same,"solvation free energy, 298 K",in CCCCCC,-7.24 kcal/mol
same,"solvation free energy, 298 K",in CCCCCCC,-7.22 kcal/mol
same,"solvation free energy, 298 K",[1],-7.56 kcal/mol
same,"solvation free energy, 298 K",in CCCCCCCCO,-7.08 kcal/mol
same,"solvation free energy, 298 K",in CCCCCCO,-7.12 kcal/mol
same,"solvation free energy, 298 K",in CCCCCO,-6.89 kcal/mol
same,"solvation free energy, 298 K",in CCCCO,-7.09 kcal/mol
same,"solvation free energy, 298 K",in CCCO,-7.08 kcal/mol
same,"solvation free energy, 298 K",in CCO,-7.08 kcal/mol
same,"solvation free energy, 298 K",in CCOC(C)=O,-7.78 kcal/mol
same,"solvation free energy, 298 K",in CN1CCCC1=O,-8.08 kcal/mol
same,"solvation free energy, 298 K",in CN(C)C=O,-7.95 kcal/mol
same,"solvation free energy, 298 K",in CO,-7.01 kcal/mol
same,"solvation free energy, 298 K",in Cc1ccc(C)cc1,-7.88 kcal/mol
same,"solvation free energy, 298 K",in Cc1cccc(C)c1,-7.86 kcal/mol
same,"solvation free energy, 298 K",in Cc1ccccc1C,-7.85 kcal/mol
same,"solvation free energy, 298 K",in ClC(Cl)(Cl)Cl,-7.63 kcal/mol
same,"solvation free energy, 298 K",in ClCCCl,-8.02 kcal/mol
same,"solvation free energy, 298 K",in ClCCl,-8.1 kcal/mol
same,"solvation free energy, 298 K",in Clc1ccccc1,-7.87 kcal/mol
same,"solvation free energy, 298 K",in O,-2.37 kcal/mol
same,"solvation free energy, 298 K",in O=C1CCCCC1,-7.72 kcal/mol
Oc1ccc(Cl)cc1,"solvation free energy, 298 K",in CC(C)CC(C)(C)C,-6.6 kcal/mol
same,"solvation free energy, 298 K",in CCCCCC,-6.91 kcal/mol
same,"solvation free energy, 298 K",in CCCCCCC,-6.89 kcal/mol
same,"solvation free energy, 298 K",in CCCCCCCC,-6.88 kcal/mol
same,"solvation free energy, 298 K",in CCCCCCCCCC,-6.89 kcal/mol
same,"solvation free energy, 298 K",in Cc1ccc(C)cc1,-8.29 kcal/mol
same,"solvation free energy, 298 K",in Cc1cccc(C)c1,-8.39 kcal/mol
same,"solvation free energy, 298 K",in Cc1ccccc1C,-8.48 kcal/mol
same,"solvation free energy, 298 K",in O,-7.04 kcal/mol
CCC(C)CC,"solvation free energy, 298 K",in C=CCCCCCCCCCCCCCC,-3.42 kcal/mol
same,"solvation free energy, 298 K",in CC#N,-2.58 kcal/mol
same,"solvation free energy, 298 K",in CCCCCCCCCCCCCCCC,-3.55 kcal/mol
same,"solvation free energy, 298 K",in CCCCCO,-3.33 kcal/mol
same,"solvation free energy, 298 K",in CCCCO,-3.19 kcal/mol
same,"solvation free energy, 298 K",in O,2.47 kcal/mol
O=C(O)Cc1ccccc1Nc1c(Cl)cccc1Cl,"solvation free energy, 298 K",in C1COCCO1,-19.7 kcal/mol
same,"solvation free energy, 298 K",in CCCCCO,-18.4 kcal/mol
same,"solvation free energy, 298 K",in CCO,-18.5 kcal/mol
same,"solvation free energy, 298 K",in CN(C)C=O,-20 kcal/mol
same,"solvation free energy, 298 K",in CO,-18.5 kcal/mol
same,"solvation free energy, 298 K",in Clc1ccccc1,-17.7 kcal/mol
same,"solvation free energy, 298 K",in NC=O,-17.8 kcal/mol
CC1=CC=C(C(C)C)CC1,"solvation free energy, 298 K",in O,0.12 kcal/mol
CCCCCCc1ccccc1,"solvation free energy, 298 K",in CO,-7.13 kcal/mol
CCOCCOC,"solvation free energy, 298 K",in ClC(Cl)(Cl)Cl,-5.85 kcal/mol
c1ccc(Oc2ccccc2)cc1,"solvation free energy, 298 K",in O,-2.87 kcal/mol
CCCCC[N+](=O)[O-],"solvation free energy, 298 K",in O,-2.82 kcal/mol
O=P(c1ccccc1)(c1ccccc1)c1ccccc1,"solvation free energy, 298 K",in O,-17 kcal/mol
[N]=O,"solvation free energy, 298 K",in CC#N,0.63 kcal/mol
same,"solvation free energy, 298 K",in CCCCCC,0.47 kcal/mol
same,"solvation free energy, 298 K",in CCO,0.81 kcal/mol
same,"solvation free energy, 298 K",in CCOC(C)=O,0.55 kcal/mol
same,"solvation free energy, 298 K",in CCOCC,0.34 kcal/mol
same,"solvation free energy, 298 K",in CO,0.62 kcal/mol
same,"solvation free energy, 298 K",in Cc1cccc(C)c1,0.79 kcal/mol
same,"solvation free energy, 298 K",in Cc1ccccc1,0.76 kcal/mol
same,"solvation free energy, 298 K",in ClC(Cl)(Cl)Cl,0.62 kcal/mol
NC1CCCCC1,"solvation free energy, 298 K",in C1CCCCC1,-5.47 kcal/mol
Clc1ccc(Cl)c(Cl)c1Cl,"solvation free energy, 298 K",[1],-7.82 kcal/mol
same,"solvation free energy, 298 K",in CCCCCCCCO,-7.69 kcal/mol
same,"solvation free energy, 298 K",in O,-1.34 kcal/mol
OCC(O)C(O)C(O)C(O)CO (centres undefined),"solvation free energy, 298 K",in O,-23.6 kcal/mol
CCOCCOCC,"solvation free energy, 298 K",in O,-3.54 kcal/mol
CCCCC(=O)OCC,"solvation free energy, 298 K",in O,-2.49 kcal/mol
Clc1cc(-c2c(Cl)cc(Cl)c(Cl)c2Cl)c(Cl)c(Cl)c1Cl,"solvation free energy, 298 K",in O,-4.61 kcal/mol
CC(=O)OCCOC(C)=O,"solvation free energy, 298 K",in O,-6.34 kcal/mol
Clc1cccc2c1Oc1ccccc1O2,"solvation free energy, 298 K",in O,-3.52 kcal/mol
CSc1ccccc1,"solvation free energy, 298 K",in O,-2.73 kcal/mol
CCC(C)C(C)O (centres undefined),"solvation free energy, 298 K",in CCCCCCCC,-4.87 kcal/mol
same,"solvation free energy, 298 K",in CCCCCCCCCC,-4.81 kcal/mol
CCc1ccccc1,"solvation free energy, 298 K",in C1CCOC1,-6.03 kcal/mol
same,"solvation free energy, 298 K",in C1COCCO1,-5.7 kcal/mol
same,"solvation free energy, 298 K",in C=CCCCCCCCCCCCCCC,-5.07 kcal/mol
same,"solvation free energy, 298 K",in CC#N,-5.19 kcal/mol
same,"solvation free energy, 298 K",in CC(=O)N(C)C,-5.46 kcal/mol
same,"solvation free energy, 298 K",in CC(C)(C)O,-4.99 kcal/mol
same,"solvation free energy, 298 K",in CC(C)CC(C)(C)C,-5.3 kcal/mol
same,"solvation free energy, 298 K",in CC(C)CO,-4.95 kcal/mol
same,"solvation free energy, 298 K",in CC(C)O,-4.88 kcal/mol
same,"solvation free energy, 298 K",in CC(O)CO,-4.1 kcal/mol
same,"solvation free energy, 298 K",in CCC#N,-5.78 kcal/mol
same,"solvation free energy, 298 K",in CCC(C)=O,-5.62 kcal/mol
same,"solvation free energy, 298 K",in CCCC#N,-5.6 kcal/mol
same,"solvation free energy, 298 K",in CCCCC(CC)COC(=O)CCCCC(=O)OCC(CC)CCCC,-5.37 kcal/mol
same,"solvation free energy, 298 K",in CCCCCC,-5.35 kcal/mol
same,"solvation free energy, 298 K",in CCCCCCC,-5.36 kcal/mol
same,"solvation free energy, 298 K",in CCCCCCCCCC,-5.23 kcal/mol
same,"solvation free energy, 298 K",in CCCCCCCCCCCCCCCC,-5.16 kcal/mol
same,"solvation free energy, 298 K",in CCCCCCCCO,-5.05 kcal/mol
same,"solvation free energy, 298 K",in CCCCN(C=O)CCCC,-5.44 kcal/mol
same,"solvation free energy, 298 K",in CCCCOC(=O)c1ccccc1C(=O)OCCCC,-5.38 kcal/mol
same,"solvation free energy, 298 K",in CCCO,-4.93 kcal/mol
same,"solvation free energy, 298 K",in CCO,-4.83 kcal/mol
same,"solvation free energy, 298 K",in CCOC(=O)c1ccccc1C(=O)OCC,-5.23 kcal/mol
same,"solvation free energy, 298 K",in CN(C)C=O,-5.41 kcal/mol
same,"solvation free energy, 298 K",in CNC(C)=O,-5.05 kcal/mol
same,"solvation free energy, 298 K",in CNC=O,-4.82 kcal/mol
same,"solvation free energy, 298 K",in CO,-4.86 kcal/mol
same,"solvation free energy, 298 K",in COCCO,-5.05 kcal/mol
same,"solvation free energy, 298 K",in Clc1ccccc1,-5.84 kcal/mol
same,"solvation free energy, 298 K",in NC=O,-3.26 kcal/mol
same,"solvation free energy, 298 K",in O,-0.72 kcal/mol
same,"solvation free energy, 298 K",in O=CN1CCOCC1,-5.01 kcal/mol
same,"solvation free energy, 298 K",in O=Cc1ccco1,-5.04 kcal/mol
same,"solvation free energy, 298 K",in OCCCCCO,-4.4 kcal/mol
same,"solvation free energy, 298 K",in OCCCCO,-4.2 kcal/mol
same,"solvation free energy, 298 K",in OCCCO,-3.91 kcal/mol
same,"solvation free energy, 298 K",in OCCO,-3.36 kcal/mol
same,"solvation free energy, 298 K",in OCCOCCO,-4.15 kcal/mol
same,"solvation free energy, 298 K",in OCCOCCOCCO,-4.31 kcal/mol
same,"solvation free energy, 298 K",in OCCOCCOCCOCCO,-4.38 kcal/mol
